Measurements from US8841346B2 (Massachusetts Institute of Technology, priority 2009, dated 2014).
In brackets after ≈: the same amount, converted by molar mass. Entries after “also recorded” stand apart in the source; their conditions may differ. Read-outs that look alike come from different tables or passages of the source.

Key:
mice [1] = test: Fear extinction under the reconsolidation paradigm; assay type: in vivo; settings: for spontaneous recovery of fear memory, freezing one month after initial training: reconsolidation paradigm; for fear extinction, freezing time of first trial in each day: reconsolidation training 4 days, n=20
Experimental: Mice were trained in contextual fear conditioning paradigm with two shocks. The mice subsequently received the reconsolidation training during the following 4 days. […] One hour after injection, mice were placed back to the same context for 3 minutes. The freezing time of the first trial in each day was measured and plotted.
Spontaneous recovery of the fear memory were tested one month after the initial fear memory training. […] (students t-Test).

Wild type C57/BL6 mice = test: Fear extinction under normal extinction paradigm; assay type: in vivo; settings: DCS 15 mg/kg or CI-994 30 mg/kg, 21 minute extinction trial
From the text: Wild type C57/BL6 mice were trained with contextual fear conditioning paradigms.

C57/BL6 WT mice = test: Contextual fear conditioning paradigm, memory formation in wild type mice; assay type: in vivo; settings: for memory formation, tested 24 hours after training: 1 mg/kg for 10 days, WT mice, n=20 (FIG. 45B); for memory as measured by % freezing, contextual fear conditioning: HDAC inhibitor injected for 10 days, WT mice (FIG. 26)
Experimental: C57/BL6 WT mice were injected with vehicle or HDAC inhibitor for 10 days.
The total number of mice in each group is indicated in the bottom of each column of FIG. 45A. Mice were subsequently trained with contextual fear conditioning paradigm and tested 24 hours after training. […] After 10 day's dosing, mice were trained with contextual fear conditioning paradigm and tested 24 hours after training.

HEK293 cells = test: Histone acetylation marks in HEK293 cells, Western blot; assay type: cell-based; settings: whole HEK293 cells, 10 uM, 6 hour
HDAC isoforms = test: Enzymatic inhibitory activity against known HDAC isoforms; assay type: biochemical, human; settings: for time dependent enzymatic inhibitory activity against HDAC isoforms: 1-3 h preincubation
From the text: Comparison was also made to other known memory enhancers and their ability to inhibit the same HDAC enzymes.

[2] = system: TCF/LEF luciferase reporter gene; test: TCF/LEF luciferase reporter gene in human neural progenitor cells; assay type: cell-based; settings: read-out: EC50 of TCF/LEF luciferase reporter activation
mice [3] = test: Three-day fear memory extinction trials with reminder shock; assay type: in vivo; settings: 25 mg/kg
Experimental: Two groups of mice were trained in contextual fear conditioning for two times before a three-day-extinction trials. In each extinction day, mice were exposed to the training box without any shock for 3 minutes and returned back to their home-cage. […] The freezing behavior of each mouse in the training cage were monitored. To test the fear memory recovery, a reminder shock was given one hour after the last extinction trial.

mice [4] = test: Extinction of fear memory under specific context; assay type: in vivo; settings: 30 mg/kg one hour after retrieval, 3 days, n=10
Experimental: Mice were placed in a novel training box for 3 minutes and received tone for 30 seconds, followed by electrical shocks. […] Twenty-four hours after the second fear conditioning training, mice were exposed to the training chamber (context only) to retrieve the context dependant memory. […] One hour after injection, mice were placed back in the chamber for 3 min for the extinction training. The reactivation-extinction trials were performed once in each day for 3 days and freezing level was measured 5 days after the last training. (n=10 for each group).

WT C57/BL6 mice = test: Single dose before one 21 minute fear extinction trial; assay type: in vivo
Experimental: The mice were exposed to the fear-associated context for 21 minutes without pairing with shock. Freezing behavior was measured in the first 3 minutes and last 3 minutes during the extinction training, 24 hrs after extinction and 30 days after extinction. (n=20 for each group).

[5] = oral dose level of less than 15 mg/m2 once a day, humans; cited from earlier work
CK-p25 mice [6] = test: Morris watermaze in CK-p25 mice; settings: 1 mg/kg i.p. for 10 days
Experimental: All 3 groups of mice were trained with the standard Morris watermaze paradigm for 6 days. Mice were placed in the swimming pool for 60 seconds to search for the hidden platform in each trial. A total of 3 trials were performed in each day with 5 min inter-trial-intervals. The average time each group of mice spent to find the platform is plotted (escape latency).
The two groups of mice were trained in the Morris watermaze paradigm for 7 days as described above. On day 8, platform was removed and mice were tested for memory retrieval. The average time each group of mice spent in the target quadrant is plotted.

mice [7] = test: Extinction of traumatic long-term memories; assay type: in vivo
From the text: 30 days after training, mice were exposed to two 3-min extinction sessions per day in the same context as they were trained. […] 30 days after fear conditioning to both the context (context A) and the cue (3×0.8 mA shock for 2 sec paired with a tone) mice were first exposed to the cue alone in a different context (context B) than the one in which training occurred (context A), and subsequently to two 3-min extinction sessions per day in the same context as they were trained (context A). After the end of this extinction session, mice were again exposed to context B, and their memory tested.

[8] = Maximal solubility of CI-994 free base in solvents, HPLC; assay type: physicochemical
[9] = system: HDAC2 overexpression mice
Experimental: Mice were trained using contextual fear conditioning paradigm on day 0.
For the memory reconsolidation paradigm, after the fear extinction training as described above, mice were housed in the home cage for one month. Mice were subsequently re-exposed to the conditioning box for 3 min, their freezing behavior measured.

CK-p25 mice [10] = test: Local field potential recording in hippocampus CA1 of CK-p25 mice; assay type: in vivo; settings: 1 mg/kg i.p. 10 days, recorded 10 days after treatment
[11] = Solubility study of CI-994 HCl salt in saline; assay type: physicochemical
Experimental: 2. […] Shaken the tube manually. Observation: Solution becomes hazy. 4. Sonicated the above solution of step 3 for 5 minutes. Observation: Solution becomes white colored cloudy solution when 0.9% saline solution was added. […] 5. […] 6. Supernatant clear solution of step 5 was used for analysis.

[12] = target concentration 5 mg/ml, 0.9% NaCl

N[C@@H]1CONC1=O [DCS, D-cycloserine, reference compound]
spontaneous recovery of fear memory, freezing one month after initial training (mice [1]): no significant difference comparing to the vehicle group | fear extinction, freezing time of first trial in each day (mice [1]): but not DCS, significantly facilitated fear extinction | freezing 24 hours after the extinction training (Wild type C57/BL6 mice): showed significant reduction in freezing

COc1cc2c(cc1OC)C(=O)C(CC1CCN(Cc3ccccc3)CC1)C2 (stereo not drawn) [Aricept, reference compound]
memory formation, tested 24 hours after training (C57/BL6 WT mice): did not show any effects in memory formation

O=C(CCCCCCC(=O)Nc1ccccc1)NO [SAHA, reference compound]
acetylation levels over DMSO controls (anti-acetyl H4K12) (HEK293 cells): increased acetylation levels over DMSO controls

Nc1ccc(C(=O)Nc2ccccc2N)cc1 [dinaline]
enzymatic inhibitory activity against HDAC isoforms (inhibition profile) (HDAC isoforms): primarily Class I HDAC inhibitors | time dependent enzymatic inhibitory activity against HDAC isoforms (HDAC isoforms): primarily Class I HDAC inhibitors

CC(=O)Nc1ccc(C(=O)Nc2ccccc2N)cc1 [CI-994, 4-(acetylamino)-N-(2-aminophenyl)benzamide]
EC50 [2]: ~7 µM | decay of freezing time before and after injection, extinction day 1 (mice [3]): faster decay of freezing time | decay of freezing time before and after injection, extinction day 2 (mice [3]): faster decay of freezing time | extinction of fear memory, freezing during first 3-min-exposure in each day (mice [3]; N=8): much faster | freezing time on the third day (mice [3]; p<0.05): significantly less freezing time than the control group | freezing level 24 hours after the reminder shock (mice [3]; versus control group): No significant difference | spontaneous recovery of fear memory, freezing one month after initial training (mice [1]): significantly lower freezing level than the vehicle group | fear extinction, freezing time of first trial in each day (mice [1]): significantly facilitated fear extinction | enzymatic inhibitory activity against HDAC isoforms (inhibition profile) (HDAC isoforms): primarily Class I HDAC inhibitors | time dependent enzymatic inhibitory activity against HDAC isoforms (HDAC isoforms): primarily Class I HDAC inhibitors | enzymatic inhibitory activity against HDAC isoforms (inhibition profile) (HDAC isoforms; listed as CI994): inhibits HDAC1, 2 and 3 | freezing level 5 days after the last training (mice [4]): enhanced extinction of fear memory under specific context | spontaneous recovery of fear memory 30 days after extinction training (WT C57/BL6 mice; one dose i.p. 30 mg/kg): not evident | freezing behavior after single extinction exposure (WT C57/BL6 mice; one dose i.p. 30 mg/kg one hour before 21 minute extinction trial, n=20): effective reduction in freezing | memory formation, tested 24 hours after training (C57/BL6 WT mice): significantly increased memory formation | memory as measured by % time freezing (C57/BL6 WT mice; 1 mg/kg, every day and alternate day dosing schedule): equally effective | memory as measured by % time freezing (C57/BL6 WT mice; 30 mg/kg every day for 10 days): improves the memory of mice | memory as measured by % time freezing (C57/BL6 WT mice; 30 mg/kg, alternate day dosing schedule): equally effective | memory as measured by % time freezing, dose response (C57/BL6 WT mice; 10, 5, and 1 mg/kg every day for 10 days): efficacious as a memory enhancer at all doses | freezing 24 hours after the extinction training (Wild type C57/BL6 mice): showed significant reduction in freezing | serum AUC, average (variance as percentage of the mean) [5]: 9500(62.7%) ng·hr/mL | serum Cmax, average (variance as percentage of the mean) [5]: 570(25.1%) ng/mL | time spent in the target quadrant, memory retrieval on day 8 (CK-p25 mice [6]): rescued the memory retrieval deficits | escape latency (time to find hidden platform) (CK-p25 mice [6]; 6 days training): showed similar learning curve as control mice | memories formed in a different context (context B) (mice [7]; 5 mg/kg (FIG. 49E)): did not affect memories formed in a context different from the extinction context | freezing level during extinction sessions 30 days after training (mice [7]; 5 mg/kg, p<0.001 (FIG. 49B)): significantly reduced the animals' freezing level | freezing levels 30 days after the last extinction trial (mice [7]; 5 mg/kg, p<0.001 (FIG. 49C)): still show reduced freezing levels compared to vehicle-treated ones | freezing level in the extinction context (context A) (mice [7]; 5 mg/kg, p<0.05 (FIG. 49F)): exclusively reduced the animals' freezing level in the context in which the extinction had occurred | freezing levels 30 days after last extinction trials, extinguished context (mice [7]; 5 mg/kg, p<0.05 (FIG. 49G)): still show reduced freezing levels compared to vehicle-treated ones | acetylation levels over DMSO controls (anti-acetyl H4K12) (HEK293 cells): increased acetylation levels over DMSO controls | Conc. in Vehicles, DMA ([8]; maximal solubility, free base): 246040 µg/mL | Conc. in Vehicles, DMSO ([8]; maximal solubility, free base): 266150 µg/mL | Conc. in Vehicles, EtOH ([8]; maximal solubility, free base): 2120 µg/mL | Conc. in Vehicles, NMP ([8]; maximal solubility, free base): 243280 µg/mL | Conc. in Vehicles, Saline ([8]; maximal solubility, free base, 0.9% NaCl, at least 2 h): 80 µg/mL | solubility at 2 h ([8]; saline (0.9% NaCl), saline or isotonic, read-out: Conc. in Vehicles, Saline): 80 µg/mL (≈ 297 µM) | freezing level after 5 extinction trials ([9]; HDAC2 overexpressing mice, 30 mg/kg i.p., 2 doses): 30% | freezing levels after one month of spontaneous recovery ([9]; HDAC2 overexpression mice): significantly reduced the freezing levels | fear memory extinction in WT mice ([9]; WT mice, 30 mg/kg i.p.): extinct significantly faster than the vehicle treated group | LFP oscillation power in area CA1 (theta and gamma band) (CK-p25 mice [10]): significantly increased the oscillation power

Nc1ccccc1NC(=O)c1ccc(CNC(=O)OCc2cccnc2)cc1 [MS-275, reference compound]
memory as measured by % freezing, contextual fear conditioning (C57/BL6 WT mice): not efficacious; also recorded: did not result in improved cognition

Nc1ccccc1NC(=O)c1ccc(CNc2nccc(-c3cccnc3)n2)cc1 [MGCD0103, reference compound]
memory as measured by % freezing, contextual fear conditioning (C57/BL6 WT mice): not efficacious | memory as measured by % freezing, contextual fear conditioning (C57/BL6 WT mice; listed as MGC-D0103): did not result in improved cognition

CC(=O)Nc1ccc(C(=O)Nc2ccccc2N)cc1.Cl [BROAD-SAI-140]
improvement in solubility in aqueous solution versus CI-994 [11]: 35 × | chemical and solution stability, HPLC ([11]; saline solution): ≥ 2 h | Amount of drug dissolved in mg/ml of saline, 2 hours [11, 12]: 2.841 mg/mL | Amount of drug dissolved in mg/ml of saline, Initial [11, 12]: 2.852 mg/mL
